# Columns and labels:
# MO3-13 cells = experiment: Determination of reactive oxygen species (DCF fluorescence) in MO3-13 cells; assay type: cell-based, human; conditions: 50 μM peptide 30 min
# Procedure: (§1) FIG. 10A: DDSK peptide reverts the effects of Ig from MS patients on ROS levels in MO3-13 cells. MO3-13 cells were grown to semi-confluence in 24 multiwell plates and incubated for 18 h in medium containing 0.2% FBS. The cells were washed twice with FBS free medium, incubated with 50 μM of DDSK for 30 min and then with 200 μg/ml of IgG from Control (IgGCtr) or MS (IgGMS) patients for 30 min. Then, the cells were incubated with 10 μM DCHF-DA for 10 min, washed three times and DCF fluorescence was measured using a plate reader fluorometer. The histograms show the mean+/−SEM values obtained in 5 different experiments from 7 control and 7 MS subjects. # p<0.05 vs IgGCtr; *p<0.05 vs IgGMS.
# as §1, with “MO3-13” for “FIG. 10A: DDSK peptide reverts the effects of Ig from MS patients on ROS levels in MO3-13 cells. MO3-13”, “Scrambled peptide (Sc)” for “DDSK”, “obtained” for “obtained in 5 different experiments”, “3” for “7”, “subjects.” for “subjects. # p<0.05 vs IgGCtr;”, “IgGCtr.” for “IgGMS.”
# ROS levels were determined using the membrane-permeant fluorogenic probe 5,6-carboxy-2′,7′-dichlorofluoresceindiacetate, DCHFDA (Molecular Probes, Leiden, the Netherlands). The assay was based on the fluorescence detection of dichlorofluorescein (DCF), formed by ROS-mediated oxidation of the non-fluorescent precursor, dichlorofluorescin.
# MO3-13 cells were grown to semi-confluence in 24 multiwell plates (45000 cell/well) and incubated for 18 h in medium containing 0.2% FBS before the experiments. […] DCF fluorescence was measured using the plate reader Fluoroskan Ascent FL fluorometer (Thermo Electron Oy, Vantaa, Finland) and data analyzed by Ascent software.
# MS IgG = experiment: Indirect ELISA of MS IgG binding to receptor peptides; design: species or system human; conditions: 200 μg immunoglobulins
# Procedure: FIG. 6: Dose-response curves of the interaction between MS sera and DDSK peptide. (A) Sera of Multiple Sclerosis patients and Control (control group is defined in material and method below) (200 μg) were incubated with different concentrations (50-100-250 μM) of peptide DDSK. For the detection, inventors used a secondary antibody anti human IgG conjugated with HRP and (3,3′,5,5′-Tetramethylbenzidine) TMB solution that was added for each well and incubated for 15-30 min. Equal volume of stopping solution (2 M H2SO4) was added to the plate and absorbance (optical density) of plate was read at 450 nm. The statistical analysis derived from 9 experiments. Values are mean±SEM. *P<0.05 MS vs CTRL (B) Linear representation of dose-response curve Values are mean±SEM. *P<0.05 MS vs CTRL.
# FIGS. 7A, 7B, 7C and 7D: MS sera recognize specially receptor's peptides. […] Equal volume of stopping solution (2 M H2SO4) was added to the plate and absorbance (optical density) of plate was read at 450 nm. […]
# A. Sera of Multiple Sclerosis patients and Control (200 μg) were incubated in absence (uncoated) or presence of 100 μM of DDSK peptide. […] Equal volume of stopping solution (2 M H2SO4) was added to the plate and absorbance (optical density) of plate was read at 450 nm. […]
# Diluted peptide (20 μg/ml) was coated to the wells of a PVC microtiter plate and incubated at 4° C. overnight. […] For the detection, we used a secondary antibody anti human (recognized constant region of the patient antibody conjugated with HRP and (3,3′,5,5′-Tetramethylbenzidine) TMB solution that was added for each well and incubated for 15-30 min. Equal volume of stopping solution (2 M H2SO4) was added to the plate and absorbance (optical density) of plate was read at 450 nm.
# To evaluate the peptide concentration to use for ELISA assay we performed a dose-response curve. […] (named DDSK in the figures) and the absorbance (optical density) of plate was read at 450 nm. […]
sequence,measurement,setting,value
DDSKVFKEGS,effect of peptide preincubation on ROS levels of IgG MS treated cells,MO3-13 cells; then 200 μg/ml IgG MS 30 min,reverted the effect
same,effect of peptide preincubation on ROS levels of IgGCtr treated samples,MO3-13 cells; then 200 μg/ml IgGCtr 30 min,did not significantly affect
same,binding of MS IgG to peptide respect to scrambled,MS IgG; 100 μM peptide,bind specifically
same,peptide concentration at which MS IgG bind the peptide,"MS IgG; dose-response 50-100-250 μM peptide, absorbance 450 nm",higher than 50 μM
